# Reference: ChEMBL document CHEMBL3046887, “Microwave-irradiated synthesis and antimicrobial activity of 2-phenyl-7-substitutedalkyl/arylaminoquinoline-4-carboxylic acid derivatives” (2010)
# Active and inactive are the calls of the source. The calls are words filed in the database; no cut-off is given here.
# Legend:
# Assay type in all cases: functional
# Bacillus subtilis = experiment: Antibacterial activity against Bacillus subtilis MTCC 2397 at 10 ug/well after 24 hr by agar well diffusion method; settings: for zone of inhibition at 10 µg/disc: MTCC 2397, 24 h, read-out: DIZ
# Pseudomonas aeruginosa [1] = experiment: Antibacterial activity against Pseudomonas aeruginosa MTCC 741 at 10 ug/well after 24 hr by agar well diffusion method; settings: for zone of inhibition at 10 µg/disc: MTCC 741, 24 h, read-out: DIZ
# Bacillus pumilus = experiment: Antibacterial activity against Bacillus pumilus MTCC 1640 at 10 ug/well after 24 hr by agar well diffusion method; settings: for zone of inhibition at 10 µg/disc: MTCC 1640, 24 h, read-out: DIZ
# Streptococcus pyogenes [2] = experiment: Antibacterial activity against Streptococcus pyogenes MTCC 442 at 10 ug/well after 24 hr by agar well diffusion method; settings: for zone of inhibition at 10 µg/disc: MTCC 442, 24 h, read-out: DIZ
# Pseudomonas oleovorans = experiment: Antibacterial activity against Pseudomonas oleovorans MTCC 617 at 10 ug/well after 24 hr by agar well diffusion method; settings: Ectopseudomonas oleovorans; for zone of inhibition at 10 µg/disc: MTCC 617, 24 h, read-out: DIZ
# Escherichia coli = experiment: Antibacterial activity against Escherichia coli MTCC 1652 at 10 ug/well after 24 hr by agar well diffusion method; settings: for zone of inhibition at 10 µg/disc: MTCC 1652, 24 h, read-out: DIZ
# Staphylococcus aureus = experiment: Antibacterial activity against Staphylococcus aureus MTCC 737 at 10 ug/well after 24 hr by agar well diffusion method; settings: for zone of inhibition at 10 µg/disc: MTCC 737, 24 h, read-out: DIZ
# Enterococcus faecalis = experiment: Antibacterial activity against Enterococcus faecalis MTCC 439 at 10 ug/well after 24 hr by agar well diffusion method; settings: for zone of inhibition at 10 µg/disc: MTCC 439, 24 h, read-out: DIZ
# Bacillus cereus = experiment: Antibacterial activity against Bacillus cereus MTCC 430 at 10 ug/well after 24 hr by agar well diffusion method; settings: for zone of inhibition at 10 µg/disc: MTCC 430, 24 h, read-out: DIZ
# Klebsiella pneumoniae = experiment: Antibacterial activity against Klebsiella pneumoniae MTCC 109 at 10 ug/well after 24 hr by agar well diffusion method; settings: for zone of inhibition at 10 µg/disc: MTCC 109, 24 h, read-out: DIZ
# Streptococcus pyogenes [3] = experiment: Antibacterial activity against Streptococcus pyogenes MTCC 442 after 24 hr by agar dilution method
# Pseudomonas aeruginosa [4] = experiment: Antibacterial activity against Pseudomonas aeruginosa MTCC 741 after 24 hr by agar dilution method
Compound,zone of inhibition at 10 µg/disc (Bacillus subtilis) [mm],zone of inhibition at 10 µg/disc (Pseudomonas aeruginosa [1]) [mm],zone of inhibition at 10 µg/disc (Bacillus pumilus) [mm],zone of inhibition at 10 µg/disc (Streptococcus pyogenes [2]) [mm],zone of inhibition at 10 µg/disc (Pseudomonas oleovorans) [mm],zone of inhibition at 10 µg/disc (Escherichia coli) [mm],zone of inhibition at 10 µg/disc (Staphylococcus aureus) [mm],zone of inhibition at 10 µg/disc (Enterococcus faecalis) [mm],zone of inhibition at 10 µg/disc (Bacillus cereus) [mm],zone of inhibition at 10 µg/disc (Klebsiella pneumoniae) [mm],also measured
COc1ccc(Nc2ccc3c(C(=O)O)cc(-c4ccccc4)nc3c2)cc1,4,8,3,5,5,3,2,8,4,3,–
NS(=O)(=O)c1ccc(Nc2ccc3c(C(=O)O)cc(-c4ccccc4)nc3c2)cc1,5,4,2,5,11,8,9,5,5,–,diameter of the inhibition zone (DIZ) (Klebsiella pneumoniae): inactive
Cc1ccc(Nc2ccc3c(C(=O)O)cc(-c4ccccc4)nc3c2)cc1,6,3,9,7,8,8,5,9,6,3,–
GENTAMICIN,–,–,–,–,–,–,–,–,–,–,inhibition zone (IZ) (Bacillus subtilis): 19 mm; inhibition zone (IZ) (Pseudomonas aeruginosa [1]): 19 mm; inhibition zone (IZ) (Bacillus pumilus): 17 mm; inhibition zone (IZ) (Streptococcus pyogenes [2]): 17 mm; inhibition zone (IZ) (Pseudomonas oleovorans): 19 mm; inhibition zone (IZ) (Escherichia coli): 16 mm; inhibition zone (IZ) (Staphylococcus aureus): 16 mm; inhibition zone (IZ) (Enterococcus faecalis): 18 mm; inhibition zone (IZ) (Bacillus cereus): 17 mm; inhibition zone (IZ) (Klebsiella pneumoniae): 16 mm
O=C(O)c1cc(-c2ccccc2)nc2cc(Nc3ccc([N+](=O)[O-])cc3)ccc12,5,–,11,2,8,12,7,3,9,–,diameter of the inhibition zone (DIZ) (Pseudomonas aeruginosa [1]): inactive; diameter of the inhibition zone (DIZ) (Klebsiella pneumoniae): inactive
O=C(O)CNc1ccc2c(C(=O)O)cc(-c3ccccc3)nc2c1,–,4,2,5,8,2,–,7,4,5,diameter of the inhibition zone (DIZ) (Bacillus subtilis): inactive; diameter of the inhibition zone (DIZ) (Staphylococcus aureus): inactive
O=C(O)c1cc(-c2ccccc2)nc2cc(Nn3cnnc3)ccc12,–,–,2,–,4,3,2,3,3,4,diameter of the inhibition zone (DIZ) (Bacillus subtilis): inactive; diameter of the inhibition zone (DIZ) (Pseudomonas aeruginosa [1]): inactive; diameter of the inhibition zone (DIZ) (Streptococcus pyogenes [2]): inactive
O=C(O)c1cc(-c2ccccc2)nc2cc(N3CCNCC3)ccc12,2,4,5,7,11,10,4,7,5,6,–
O=C(O)c1cc(-c2ccccc2)nc2cc(Nc3ccccc3)ccc12,9,4,5,7,12,10,8,9,10,5,MIC (Streptococcus pyogenes [3]): 4 µg; MIC (Pseudomonas aeruginosa [4]): 9 µg
O=C(O)c1cc(-c2ccccc2)nc2cc(Cl)ccc12,5,2,8,4,6,7,–,7,4,3,diameter of the inhibition zone (DIZ) (Staphylococcus aureus): inactive
CC1COc2c(N3CCN(C)CC3)c(F)cc3c(=O)c(C(=O)O)cn1c23 (centres undefined) [OFLOXACIN],17,16,17,17,17,17,16,16,16,19,–
NC(=O)Nc1ccc2c(C(=O)O)cc(-c3ccccc3)nc2c1,9,9,6,9,9,7,9,6,10,6,–
O=C(O)c1cc(-c2ccccc2)nc2cc(Nc3nccs3)ccc12,9,15,12,13,13,7,10,12,13,5,MIC (Streptococcus pyogenes [3]): 5 µg; MIC (Pseudomonas aeruginosa [4]): 3 µg
O=C(O)c1cc(-c2ccccc2)nc2cc(Nc3ccncc3)ccc12,5,5,6,–,4,4,3,7,5,4,diameter of the inhibition zone (DIZ) (Streptococcus pyogenes [2]): inactive
NC(=S)Nc1ccc2c(C(=O)O)cc(-c3ccccc3)nc2c1,–,12,3,5,7,5,9,9,5,–,diameter of the inhibition zone (DIZ) (Bacillus subtilis): inactive; diameter of the inhibition zone (DIZ) (Klebsiella pneumoniae): inactive
